Measurements: patent publication EP1022029A1, “NOOTROPIC AGENT” (priority 1997, dated 1999)

Key:
[1] = tested on: glutamate release from hippocampal slices; format: cell-based, guinea pig
[2] = tested on: field excitatory postsynaptic potentials (fEPSP); assay: Field excitatory postsynaptic potentials (fEPSP slope) in rat hippocampal slices, CA1; format: cell-based; details: nefiracetam 1 µM applied for 10 minutes
Procedure: Long-lasting facilitation of hippocampal synaptic transmission induced by nefiracetam was investigated. The field excitatory postsynaptic potentials (fEPSP) were recorded in the pyramidal cell layer of the CA1 region by electrical stimulation to the Schaeffer collateral pathway in rat hippocampla slices. Nefiracetam (1 µM) was applied to the hippocampla slices for 10 minutes. After nefiracetam application, fEPSPs were gradually augmented. This effect was observed until 240 minutes had passed since the experiment ended (Table 18-2).
Next, investigation was made regarding whether the above effect exerted by the present drug differs from the onset mechanism for long-term potentiation (LTP) action exerted when tetanic stimulation was used. The following three groups were compared: (group 1) tetanic stimulation alone; (group 2) nefiracetam + tetanic stimulation; (group 3) tetanic stimulation + nefiracetam. As a result, the fEPSPs that had been potentiated by nefiracetam was not potentiated any longer even when subsequent tetanic stimulation was applied. Likewise, the fEPSPs that had been potentiated by tetanic stimulation was not potentiated any longer even after subsequent application of nefiracetam. The amplitudes of potentiation of these two types of fEPSP were the same as the amplitude of tetanic stimulation. […]

[3] = tested on: calcium-dependent chloride currents; assay: Calcium-dependent chloride currents in Xenopus oocytes; format: cell-based
Procedure: In atropine-free frog Ringer's solution, acetylcholine (Ach) (100 µM) was administered to an oocyte that had not expressed ACh receptors. The holding voltage was -30 mV.
In Xenopus oocyte expression systems, ACh-evoked currents are known to be composed of ACh-gated channel currents and calcium-dependent chloride currents (R. Miledi et al., J. Physiol. 357, 173, 1984). Nefiracetam, however, had no effect on calcium-dependent chloride currents induced by stimulation from the endogenous muscarinic ACh receptors (FIG. 2).

## Cc1cccc(C)c1NC(=O)CN1CCCC1=O [nefiracetam, 2-oxo-1-pyrrolidinylacetic acid 2,6-dimethylanilide]
[1]; 1 µM, depolarization by electrical stimulation
  effect on glutamate release: significantly increased
[1]; St (ES+) electrical stimulation, nefiracetam 1 µM, tetrodotoxin 0.5 µM, α-bungarotoxin 50 nM, mecamylamine 3 µM
  Amount of released glutamate: 3.23 ± 0.5 (a) nmol/mg protein/10min.
[2]
  time until which augmentation of fEPSPs was observed: ≥ 240 min
[3]; oocyte not expressing ACh receptors, atropine-free Ringer, ACh 100 µM
  effect on calcium-dependent chloride currents induced by stimulation from the endogenous muscarinic ACh receptors (FIG. 2): had no effect
[3]; oocytes, data not shown
  effect on chloride ion (Cl^-) currents evoked by Ca^2+ influx through the nACh receptor channels: had no effect
